Source: PubChem BioAssay (NCI)
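Cultured in 96-well plates, cells were exposed to test compound for 48 hours across five concentrations. GI50 is the concentration that inhibits growth by half. TGI is the concentration that stops growth completely.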

Tests used:
Test in all cases: NCI-60 cell line screen, 48 h
MOLT-4 leukemia = tested on: MOLT-4 leukemia
SW-620 colon = tested on: SW-620 colon
SK-OV-3 ovarian = tested on: SK-OV-3 ovarian
HL-60(TB) leukemia = tested on: HL-60(TB) leukemia
T-47D breast = tested on: T-47D breast
A549 NSCLC = tested on: A549 NSCLC
SNB-19 CNS = tested on: SNB-19 CNS
TK-10 renal = tested on: TK-10 renal
NCI-H23 lung = tested on: NCI-H23 lung
ACHN renal = tested on: ACHN renal
MCF7 breast = tested on: MCF7 breast
OVCAR-8 ovarian = tested on: OVCAR-8 ovarian
NCI-H226 lung = tested on: NCI-H226 lung
NCI/ADR-RES ovarian = tested on: NCI/ADR-RES ovarian
SNB-75 CNS = tested on: SNB-75 CNS
MALME-3M melanoma = tested on: MALME-3M melanoma
UACC-62 melanoma = tested on: UACC-62 melanoma
HCT-116 colon = tested on: HCT-116 colon
RXF 393 renal = tested on: RXF 393 renal
786-0 renal = tested on: 786-0 renal
SF-295 CNS = tested on: SF-295 CNS
OVCAR-5 ovarian = tested on: OVCAR-5 ovarian
HOP-62 NSCLC = tested on: HOP-62 NSCLC
SF-539 CNS = tested on: SF-539 CNS
OVCAR-4 ovarian = tested on: OVCAR-4 ovarian
LOX IMVI melanoma = tested on: LOX IMVI melanoma
COLO 205 colon = tested on: COLO 205 colon
UACC-257 melanoma = tested on: UACC-257 melanoma
NCI-H522 lung = tested on: NCI-H522 lung
HT29 colon = tested on: HT29 colon
U251 CNS = tested on: U251 CNS
HCC-2998 colon = tested on: HCC-2998 colon
SK-MEL-5 melanoma = tested on: SK-MEL-5 melanoma
HS 578T breast = tested on: HS 578T breast
NCI-H460 lung = tested on: NCI-H460 lung
IGROV1 ovarian = tested on: IGROV1 ovarian
K-562 leukemia = tested on: K-562 leukemia
HOP-92 NSCLC = tested on: HOP-92 NSCLC
SK-MEL-28 melanoma = tested on: SK-MEL-28 melanoma
UO-31 renal = tested on: UO-31 renal
OVCAR-3 ovarian = tested on: OVCAR-3 ovarian
BT-549 breast = tested on: BT-549 breast
A498 renal = tested on: A498 renal
SR leukemia = tested on: SR leukemia
RPMI-8226 leukemia = tested on: RPMI-8226 leukemia

In the case of COc1cc(C(=O)/C=C/c2cccc(Nc3ccnc4cc(Cl)ccc34)c2)cc(OC)c1OC, the GI50 (MOLT-4 leukemia) is reported as 1790 nM, the TGI (MOLT-4 leukemia) is reported as 6460 nM and the GI50 (SW-620 colon) is reported as 445 nM. It also gave a TGI (SW-620 colon) of 2440 nM, a GI50 (SK-OV-3 ovarian) of 1940 nM and a TGI (SK-OV-3 ovarian) of 4510 nM. For the same compound, the GI50 (HL-60(TB) leukemia) was 1820 nM, the TGI (HL-60(TB) leukemia) was 4520 nM and the GI50 (T-47D breast) was 1220 nM. The TGI (T-47D breast) was 3170 nM, the GI50 (A549 NSCLC) was 1480 nM and the TGI (A549 NSCLC) was 3910 nM. It also gave a GI50 (SNB-19 CNS) of 1180 nM, a TGI (SNB-19 CNS) of 2450 nM and a GI50 (TK-10 renal) of 1450 nM. The TGI (TK-10 renal) was 2970 nM, the GI50 (NCI-H23 lung) was 1670 nM and the TGI (NCI-H23 lung) was 3680 nM. It also gave a GI50 (ACHN renal) of 1240 nM, a TGI (ACHN renal) of 2490 nM and a GI50 (MCF7 breast) of 609 nM. For the same compound, the TGI (MCF7 breast) was 2060 nM, the GI50 (OVCAR-8 ovarian) was 524 nM and the TGI (OVCAR-8 ovarian) was 2120 nM. For the same compound, the GI50 (NCI-H226 lung) was 1270 nM, the TGI (NCI-H226 lung) was 2950 nM and the GI50 (NCI/ADR-RES ovarian) was 409 nM. The TGI (NCI/ADR-RES ovarian) was 2940 nM, the GI50 (SNB-75 CNS) was 1310 nM and the TGI (SNB-75 CNS) was 3640 nM. For the same compound, the GI50 (MALME-3M melanoma) was 1460 nM, the TGI (MALME-3M melanoma) was 3380 nM and the GI50 (UACC-62 melanoma) was 1030 nM. The TGI (UACC-62 melanoma) was 2360 nM, the GI50 (HCT-116 colon) was 347 nM and the TGI (HCT-116 colon) was 1290 nM. It also gave a GI50 (RXF 393 renal) of 1080 nM, a TGI (RXF 393 renal) of 2480 nM and a GI50 (786-0 renal) of 564 nM. It also gave a TGI (786-0 renal) of 1950 nM, a GI50 (SF-295 CNS) of 1420 nM and a TGI (SF-295 CNS) of 3030 nM. For the same compound, the GI50 (OVCAR-5 ovarian) was 1700 nM, the TGI (OVCAR-5 ovarian) was 3290 nM and the GI50 (HOP-62 NSCLC) was 676 nM. It also gave a TGI (HOP-62 NSCLC) of 2270 nM, a GI50 (SF-539 CNS) of 1360 nM and a TGI (SF-539 CNS) of 2680 nM. For the same compound, the GI50 (OVCAR-4 ovarian) was 1260 nM, the TGI (OVCAR-4 ovarian) was 2570 nM and the GI50 (LOX IMVI melanoma) was 373 nM. The TGI (LOX IMVI melanoma) was 1460 nM, the GI50 (COLO 205 colon) was 1340 nM and the TGI (COLO 205 colon) was 3690 nM. For the same compound, the GI50 (UACC-257 melanoma) was 1430 nM, the TGI (UACC-257 melanoma) was 3060 nM and the GI50 (NCI-H522 lung) was 594 nM. For the same compound, the TGI (NCI-H522 lung) was 2250 nM, the GI50 (HT29 colon) was 323 nM and the TGI (HT29 colon) was 1300 nM. It also gave a GI50 (U251 CNS) of 911 nM, a TGI (U251 CNS) of 2240 nM and a GI50 (HCC-2998 colon) of 1720 nM. The TGI (HCC-2998 colon) was 3210 nM, the GI50 (SK-MEL-5 melanoma) was 1380 nM and the TGI (SK-MEL-5 melanoma) was 2670 nM. The GI50 (HS 578T breast) was 2490 nM, the TGI (HS 578T breast) was 14200 nM and the GI50 (NCI-H460 lung) was 1910 nM. The TGI (NCI-H460 lung) was 4490 nM, the GI50 (IGROV1 ovarian) was 1320 nM and the TGI (IGROV1 ovarian) was 3800 nM. The GI50 (K-562 leukemia) was 403 nM, the TGI (K-562 leukemia) was 3230 nM and the GI50 (HOP-92 NSCLC) was 1470 nM. The TGI (HOP-92 NSCLC) was 5840 nM, the GI50 (SK-MEL-28 melanoma) was 1510 nM and the TGI (SK-MEL-28 melanoma) was 3010 nM. The GI50 (UO-31 renal) was 566 nM, the TGI (UO-31 renal) was 1950 nM and the GI50 (OVCAR-3 ovarian) was 389 nM. The TGI (OVCAR-3 ovarian) was 1390 nM, the GI50 (BT-549 breast) was 1230 nM and the TGI (BT-549 breast) was 2840 nM. The GI50 (A498 renal) was 1540 nM, the TGI (A498 renal) was 4210 nM and the GI50 (SR leukemia) was 324 nM. The TGI (SR leukemia) was 1420 nM, the GI50 (RPMI-8226 leukemia) was 312 nM and the TGI (RPMI-8226 leukemia) was 1420 nM.
